Test results: patent EP0802730B1, “PESTICIDAL COMPOUNDS” (BTG INTERNATIONAL LIMITED, priority 1995, dated 1996)
≈ marks a conversion by molar mass, not a printed value.

Tested on: Rhizoctonia solani
Experiment: Fungitoxicity in vitro on potato dextrose agar
Assay type: cell-based
Conditions: R. solani; 1 mg 1^-1; 4 days

SMILES	% inhibition of growth in colony diameter in agar plates, Activity at 1 mg 1^-1 [%]
COC(=O)Nc1nc2ccccc2[nH]1 [Carbendazim, carbendazim, reference compound]	3.3

Same assay, conditions: R. solani; 5 mg 1^-1; 4 days

SMILES	% inhibition of growth in colony diameter in agar plates, Activity at 5 mg 1^-1 [%]
COC(=O)Nc1nc2ccccc2[nH]1 [Carbendazim, carbendazim, reference compound]	82.4

Same assay, conditions: R. solani; 100 mg 1^-1; 4 days

SMILES	% inhibition of growth in colony diameter in agar plates, Activity at 100 mg 1^-1 [%]
CCC(C)(C)C1=C(O)C(=O)c2ccccc2C1=O [Example 1, 2-(1,1-dimethylpropyl)-3-hydroxynaphthalene-1,4-dione]	95
CCC(C)(C)C1=C(OC(C)=O)C(=O)c2ccccc2C1=O [Example 2, 2-(1,1-dimethylpropyl)-3-ethanoyloxy-naphthalene-1,4-dione]	81
CC(C)(C)C1=C(O)C(=O)c2ccccc2C1=O [Example 3, 2-(t-butyl)-3-hydroxy-naphthalene-1,4-dione]	92

Tested on: resistant mites (TU) (Tetranychus urticae), NYR-Bif-1000
Experiment: Mite immersion test, bifenthrin-resistant strain
Assay type: in vivo
Conditions: 72 h, read-out: TU (NYR-Bif-1000) (LC50)
Protocol: (§1) 25 adult female mites were immersed in 35 µl of a solution of the test compound in a 1:4 acetone-water mixture for 30 seconds. The treated insects were maintained at 21° ± 2°C and kill was assessed 72 hours after treatment. […] Three replicates of 25 mites each were used at each dose rate and 5 or 6 dose rates were used per compound under test. LC50 values were calculated in ppm of the solution of the test compound per insect. The test was carried out using a susceptible strain of mites (GSS) supplied by Schering, AG, Berlin.
The test of Example 16 (TU(GSS)) was repeated using a strain of mites which is resistant to bifenthrin (NYR-Bif-1000). The NYR-Bif-1000 strain was provided by the Department of Entomology, Cornell University, New York.

SMILES	LC50 [µg/mL]
CCC(C)(C)C1=C(O)C(=O)c2ccccc2C1=O [Example 1, 2-(1,1-dimethylpropyl)-3-hydroxynaphthalene-1,4-dione]	84 (≈ 344 µM)
CCC(C)(C)C1=C(OC(C)=O)C(=O)c2ccccc2C1=O [Example 2, 2-(1,1-dimethylpropyl)-3-ethanoyloxy-naphthalene-1,4-dione]	83 (≈ 290 µM)

Tested on: Mustard beetles (PC) (Phaedon cochleariae Fab)
Experiment: not given
Assay type: in vivo
Conditions: 1 µl acetone drop applied ventrally to adults; kill at 48 hours; NA = lack of detectable activity
Protocol: A one microlitre drop of an acetone solution of the test compound was applied ventrally to adult mustard beetles using a micro drop applicator. The treated insects were maintained for 48 hours after which time kill was assessed. Two replicates each of 20 to 25 mustard beetles were used at each dose level and 5 dose levels were treated comparably. LD50 values were calculated as for houseflies.

SMILES	PC (LD50)
CCC(C)(C)C1=C(O)C(=O)c2ccccc2C1=O [Example 1, 2-(1,1-dimethylpropyl)-3-hydroxynaphthalene-1,4-dione]	c. 10 µg/insect
CCC(C)(C)C1=C(OC(C)=O)C(=O)c2ccccc2C1=O [Example 2, 2-(1,1-dimethylpropyl)-3-ethanoyloxy-naphthalene-1,4-dione]	c. 6.0 µg/insect
CC(C)(C)C1=C(O)C(=O)c2ccccc2C1=O [Example 3, 2-(t-butyl)-3-hydroxy-naphthalene-1,4-dione]	c. 6.0 µg/insect

Tested on: Diamond-back moth (PX) (Plutella xylostella)
Experiment: Diamond-back moth larvae topical test (failure to pupate)
Assay type: in vivo
Conditions: fifth instar larvae, 0.5 µl drop; failure to pupate 5 days later
Protocol: Fifth instar larvae were treated with a 0.5 µl drop of test compound in acetone. Three replicates of 10 larvae each were used at each dose rate and 5 dose rates were used per compound under test. After treatment, the larvae were maintained at about 22°C, and kill was assessed as failure to pupate 5 days later. LD50 values were calculated as for houseflies.

SMILES	PX (LD50)
CCC(C)(C)C1=C(OC(C)=O)C(=O)c2ccccc2C1=O [Example 2, 2-(1,1-dimethylpropyl)-3-ethanoyloxy-naphthalene-1,4-dione]	c. 10 µg/insect
CC(C)(C)C1=C(O)C(=O)c2ccccc2C1=O [Example 3, 2-(t-butyl)-3-hydroxy-naphthalene-1,4-dione]	c. 8.0 µg/insect

Tested on: Mites (TU) (Tetranychus urticae), susceptible strain (GSS)
Experiment: Mite immersion test, susceptible strain GSS
Assay type: in vivo
Conditions: ppm solution of test compound, 30 seconds immersion, kill at 72 hours, read-out: TU(GSS) (LC50)
Protocol: as §1

SMILES	LC50 [µg/mL]
CCC(C)(C)C1=C(O)C(=O)c2ccccc2C1=O [Example 1, 2-(1,1-dimethylpropyl)-3-hydroxynaphthalene-1,4-dione]	39 (≈ 160 µM)
CCC(C)(C)C1=C(OC(C)=O)C(=O)c2ccccc2C1=O [Example 2, 2-(1,1-dimethylpropyl)-3-ethanoyloxy-naphthalene-1,4-dione]	64 (≈ 224 µM)
CC(C)(C)C1=C(O)C(=O)c2ccccc2C1=O [Example 3, 2-(t-butyl)-3-hydroxy-naphthalene-1,4-dione]	81 (≈ 352 µM)

Tested on: Pyricularia oryzae (=Magnaporthe grisea)
Experiment: not given
Assay type: cell-based
Conditions: P. oryzae; 1 mg 1^-1; 7 days

SMILES	% inhibition of growth in colony diameter in agar plates, Activity at 1 mg 1^-1 [%]
COC(=O)Nc1nc2ccccc2[nH]1 [Carbendazim, carbendazim, reference compound]	14.7

Same assay, conditions: P. oryzae; 5 mg 1^-1; 7 days

SMILES	% inhibition of growth in colony diameter in agar plates, Activity at 5 mg 1^-1 [%]
COC(=O)Nc1nc2ccccc2[nH]1 [Carbendazim, carbendazim, reference compound]	99.8

Same assay, conditions: P. oryzae; 100 mg 1^-1; 7 days

SMILES	% inhibition of growth in colony diameter in agar plates, Activity at 100 mg 1^-1 [%]
CCC(C)(C)C1=C(O)C(=O)c2ccccc2C1=O [Example 1, 2-(1,1-dimethylpropyl)-3-hydroxynaphthalene-1,4-dione]	100
CCC(C)(C)C1=C(OC(C)=O)C(=O)c2ccccc2C1=O [Example 2, 2-(1,1-dimethylpropyl)-3-ethanoyloxy-naphthalene-1,4-dione]	89
CC(C)(C)C1=C(O)C(=O)c2ccccc2C1=O [Example 3, 2-(t-butyl)-3-hydroxy-naphthalene-1,4-dione]	100

Tested on: Houseflies (MD) (Musca domestica)
Experiment: not given
Assay type: in vivo
Conditions: topical 1 µl drop in acetone on female flies; kill assessed 24 and 48 hours
Protocol: Female flies were treated on the thorax with a one microlitre drop of test compound dissolved in acetone. Two replicates of 15 flies were used at each dose rate and 6 dose rates were used per compound under test. After treatment, the flies were maintained at a temperature of 20° ± 1°C and kill was assessed 24 and 48 hours after treatment. LD50 values were calculated in micrograms of test compound per fly (see Sawicki et al., Bulletin of the World Health Organisation, 35, 893 (1966) and Sawicki et al., Entomologia and Exp. Appli 10, 253, (1967).

SMILES	MD (LD50)
CCC(C)(C)C1=C(O)C(=O)c2ccccc2C1=O [Example 1, 2-(1,1-dimethylpropyl)-3-hydroxynaphthalene-1,4-dione]	< 10 µg/insect
CCC(C)(C)C1=C(OC(C)=O)C(=O)c2ccccc2C1=O [Example 2, 2-(1,1-dimethylpropyl)-3-ethanoyloxy-naphthalene-1,4-dione]	< 10 µg/insect
CC(C)(C)C1=C(O)C(=O)c2ccccc2C1=O [Example 3, 2-(t-butyl)-3-hydroxy-naphthalene-1,4-dione]	c. 2.5 µg/insect

Tested on: Myzus persicae, susceptible strain (US1L)
Experiment: Aphid dip test, susceptible strain
Assay type: in vivo
Conditions: strain S, 40 PPM, read-out: % mortality corrected for control data
Protocol: Activity against resistant (R) and susceptible (S) strains of aphid (Myzus persicae) was assessed using the following method.
Entrapment rings of fluon were painted halfway up the inside of 4 cm lengths of glass tubing (1.5 cm diameter), and squares of insect-proof gauze were attached to one end of each tube by elastic bands. Fifteen apterous adults were then gently transferred into the tubes using a sable-hair brush, and the tube sealed with a second gauze square.
Tubes containing aphids were dipped into insecticide solutions for 10 seconds, dried on blotting paper, and then inverted and tapped to cause treated aphids to fall to the unimmersed end of each tube. Handling mortality (usually zero or very slight) was scored after 1 hour, when aphids were transferred onto chinese cabbage leaf-discs (35 mm diameter) on an agar bed (25 mm in depth) in disposible plastic containers (30 mm high) and confined by applying a ring of fluon to the exposed lip of the container. Containers were store upright, without lids, in a constant environment facility maintained at 25°C under continuous room lighting. Mortality was assessed at 24, 48 and 72 hours. Two replicates of 15 aphids each were used at each dose rate and 5 or 6 dose rates were used per compound under test.
The test was carried out using a susceptible strain of aphids (US1L) collected in the field in East Anglia, UK and an extremely resistant strain of aphids (794Jz) (R3 esterase, sensitive AChE) collected from glasshouses in the UK.
The values given are % mortality corrected for control data. The control comprised the test solution without active ingredient.

SMILES	mortality at 40 ppm [%]
CCC(C)(C)C1=C(OC(C)=O)C(=O)c2ccccc2C1=O [Example 2, 2-(1,1-dimethylpropyl)-3-ethanoyloxy-naphthalene-1,4-dione]	20

Same assay, conditions: strain S, 100 PPM, read-out: % mortality corrected for control data

SMILES	mortality at 100 ppm [%]
CCC(C)(C)C1=C(O)C(=O)c2ccccc2C1=O [Example 1, 2-(1,1-dimethylpropyl)-3-hydroxynaphthalene-1,4-dione]	11
CC(C)(C)C1=C(O)C(=O)c2ccccc2C1=O [Example 3, 2-(t-butyl)-3-hydroxy-naphthalene-1,4-dione]	27

Same assay, conditions: strain S, 250 PPM, read-out: % mortality corrected for control data

SMILES	mortality at 250 ppm [%]
CCC(C)(C)C1=C(O)C(=O)c2ccccc2C1=O [Example 1, 2-(1,1-dimethylpropyl)-3-hydroxynaphthalene-1,4-dione]	26
CCC(C)(C)C1=C(OC(C)=O)C(=O)c2ccccc2C1=O [Example 2, 2-(1,1-dimethylpropyl)-3-ethanoyloxy-naphthalene-1,4-dione]	27
CC(C)(C)C1=C(O)C(=O)c2ccccc2C1=O [Example 3, 2-(t-butyl)-3-hydroxy-naphthalene-1,4-dione]	87

Tested on: Aspergillus niger
Experiment: Fungitoxicity in vitro on potato dextrose agar
Assay type: cell-based
Conditions: A. niger; 100 mg 1^-1; 4 days

SMILES	% inhibition of growth in colony diameter in agar plates, Activity at 100 mg 1^-1 [%]
CCC(C)(C)C1=C(O)C(=O)c2ccccc2C1=O [Example 1, 2-(1,1-dimethylpropyl)-3-hydroxynaphthalene-1,4-dione]	63
CCC(C)(C)C1=C(OC(C)=O)C(=O)c2ccccc2C1=O [Example 2, 2-(1,1-dimethylpropyl)-3-ethanoyloxy-naphthalene-1,4-dione]	38
CC(C)(C)C1=C(O)C(=O)c2ccccc2C1=O [Example 3, 2-(t-butyl)-3-hydroxy-naphthalene-1,4-dione]	61

Tested on: Whitefly (BT) (Bemisia tabaci), susceptible strain (SUD-S)
Experiment: Whitefly residual film vial test, susceptible strain SUD-S
Assay type: in vivo
Conditions: ppm solution of test compound, 60 minutes film exposure, mortality after 48 hours, read-out: BT(SUD-S) (LC50)
Protocol: Acetone solutions (0.100 ml) of the test compounds were placed in 10 ml glass vials and evaporated with rotation to deposit a film of the compound. Thirty adult whiteflies were placed inside the vial, then after 60 minutes, the treated insects were transferred onto untreated cotton leaf discs which were kept moist on a bed of agar gel. The temperature was maintained at 25°C and mortality assessed after 48 hours. Three replicates were used at each of 5 to 7 dose levels per compound.

SMILES	LC50 [µg/mL]
CCC(C)(C)C1=C(O)C(=O)c2ccccc2C1=O [Example 1, 2-(1,1-dimethylpropyl)-3-hydroxynaphthalene-1,4-dione]	19 (≈ 77.8 µM)
CCC(C)(C)C1=C(OC(C)=O)C(=O)c2ccccc2C1=O [Example 2, 2-(1,1-dimethylpropyl)-3-ethanoyloxy-naphthalene-1,4-dione]	4.8 (≈ 16.8 µM)
CC(C)(C)C1=C(O)C(=O)c2ccccc2C1=O [Example 3, 2-(t-butyl)-3-hydroxy-naphthalene-1,4-dione]	8 (≈ 34.7 µM)
